Patent US10213433B2 (AbbVie Inc., priority 2010, dated 2019)
pKi: −log10 of the molar value.

Key:
[1] = log D at pH 7.4 by an HPLC method; assay type: physicochemical
From the text: Table 2 below presents data for log D (a parameter related to lipophilicity) at pH 7.4, as determined by an HPLC method, for representative compounds.

Bcl-2 protein = Bcl-2 protein (Homo sapiens (Human), UniProt P10415); test: Bcl-2 binding TR-FRET (Time-Resolved Fluorescence-Resonance-Energy-Transfer) assay; conditions: inhibition constant for binding to Bcl-2 protein
Chain of Bcl-2 protein (P10415 whole entry): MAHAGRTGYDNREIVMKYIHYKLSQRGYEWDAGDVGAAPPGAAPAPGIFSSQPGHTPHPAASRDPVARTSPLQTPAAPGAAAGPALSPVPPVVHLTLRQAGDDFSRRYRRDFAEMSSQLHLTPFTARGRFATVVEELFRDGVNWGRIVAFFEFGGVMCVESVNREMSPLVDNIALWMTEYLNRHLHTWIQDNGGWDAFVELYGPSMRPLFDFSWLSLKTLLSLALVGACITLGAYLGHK
From the text: The smaller the Ki value, the greater is the binding affinity.

CC1(C)CCC(CN2CCN(c3ccc(C(=O)NS(=O)(=O)c4ccc(OCC5(F)CCN(C6COC6)CC5)c(Cl)c4)c(Oc4cnc5[nH]ccc5c4)c3)CC2)=C(c2ccc(Cl)cc2)C1 [Compound 322, N-[(3-chloro-4-{[4-fluoro-1-(oxetan-3-yl)piperidin-4-yl]methoxy}phenyl)sulfonyl]-4-(4-{[2-(4-chlorophenyl)-4,4-dimethylcyclohex-1-en-1-yl]methyl}piperazin-1-yl)-2-(1H-pyrrolo[2,3-b]pyridin-5-yloxy)benzamide]
chromatographic logD [1]: 5.48 | pKi (Bcl-2 protein): > 11.00
